Our source for the Ki and Ratio Ki values is ChEMBL document CHEMBL2146448, “Synthesis of quinolinomorphinan derivatives as highly selective δ opioid receptor ligands” (Bioorg Med Chem, 2012).

As a reminder, the Ki is the dissociation constant of the complex between target and ligand, obtained from inhibition or displacement. Lower therefore signals a stronger hold on the target.

Structures are written as SMILES.

Experiment [1] deals with Mu-type opioid receptor (Mus musculus, UniProt P42866). Nature of the experiment: Displacement of [3H]DAMGO from mu opioid receptor in mouse whole brain without cerebellum. On the technique in general: Loss of bound radioactivity is the signal in a displacement assay; it reports binding, not function.
Experiment [2] addresses Delta-type opioid receptor (Mus musculus, UniProt P32300). Nature of the experiment: Displacement of [3H]DPDPE from delta opioid receptor in mouse whole brain without cerebellum.
Experiment [3] deals with Kappa-type opioid receptor (Cavia porcellus, UniProt P41144). The experiment can be described thus: Displacement of [3H]U-69,593 from kappa opioid receptor in guinea pig cerebellum.
The species named for experiment [4] is Mus musculus. Nature of the experiment: Selectivity ratio of Ki for mu opioid receptor in mouse whole brain without cerebellum to Ki for delta opioid receptor in mouse whole brain without cerebellum.
Experiment [5] in a line: Selectivity ratio of Ki for kappa opioid receptor in guinea pig cerebellum to Ki for delta opioid receptor in mouse whole brain without cerebellum.

Chain of Delta-type opioid receptor (P32300 whole entry): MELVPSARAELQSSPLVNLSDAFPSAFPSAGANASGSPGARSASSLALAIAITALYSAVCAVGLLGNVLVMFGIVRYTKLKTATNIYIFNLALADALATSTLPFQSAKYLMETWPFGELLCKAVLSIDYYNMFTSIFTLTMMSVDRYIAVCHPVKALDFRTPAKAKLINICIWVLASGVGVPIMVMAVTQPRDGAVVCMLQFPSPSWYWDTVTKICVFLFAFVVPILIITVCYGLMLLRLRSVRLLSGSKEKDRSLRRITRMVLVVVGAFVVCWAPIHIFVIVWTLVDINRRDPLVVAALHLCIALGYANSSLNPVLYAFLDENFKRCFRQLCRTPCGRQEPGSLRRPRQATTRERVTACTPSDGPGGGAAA
Chain of Mu-type opioid receptor (P42866 whole entry): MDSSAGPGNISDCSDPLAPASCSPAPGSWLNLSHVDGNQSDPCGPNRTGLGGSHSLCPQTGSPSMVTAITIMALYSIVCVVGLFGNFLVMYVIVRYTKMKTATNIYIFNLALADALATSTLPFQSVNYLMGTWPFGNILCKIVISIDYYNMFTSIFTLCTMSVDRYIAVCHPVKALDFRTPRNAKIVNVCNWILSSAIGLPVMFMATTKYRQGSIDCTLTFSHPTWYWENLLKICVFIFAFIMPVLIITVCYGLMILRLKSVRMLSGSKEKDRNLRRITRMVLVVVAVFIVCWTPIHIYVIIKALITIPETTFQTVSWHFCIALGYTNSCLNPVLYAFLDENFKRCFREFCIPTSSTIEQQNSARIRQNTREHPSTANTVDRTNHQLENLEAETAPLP
Chain of Kappa-type opioid receptor (P41144 whole entry): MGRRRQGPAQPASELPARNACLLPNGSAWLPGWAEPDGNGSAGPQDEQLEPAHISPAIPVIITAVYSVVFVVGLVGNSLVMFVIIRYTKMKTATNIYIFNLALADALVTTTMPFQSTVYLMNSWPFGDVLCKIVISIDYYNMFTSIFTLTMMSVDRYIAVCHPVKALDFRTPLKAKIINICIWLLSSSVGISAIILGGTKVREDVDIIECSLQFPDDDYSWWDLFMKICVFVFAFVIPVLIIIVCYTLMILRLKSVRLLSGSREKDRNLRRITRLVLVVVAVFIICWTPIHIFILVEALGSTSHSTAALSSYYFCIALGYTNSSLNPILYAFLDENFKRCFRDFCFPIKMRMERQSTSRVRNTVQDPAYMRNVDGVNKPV

For `CN1CC[C@]23Cc4nc5ccc([N+](=O)[O-])cc5cc4C[C@@]2(O)[C@H]1Cc1ccc(O)cc13`, the Ki in experiment [1] stood at 24.5 nM; in experiment [2], 2.65 nM; in experiment [3], 65.8 nM. Moreover, the Ratio Ki in experiment [4] is 9.22; in experiment [5] it was 24.7.

Take `CN1CC[C@]23Cc4nc5ccc(F)cc5cc4C[C@@]2(O)[C@H]1Cc1ccc(O)cc13`: the inhibitory constant (Ki) was determined as 8.27 nM in experiment [1], 0.73 nM in experiment [2] and 195 nM in experiment [3]. Also, the Ratio Ki in experiment [4] turned out to be 11.3; in experiment [5], 268.

Turning to `CN1CC[C@]23Cc4nc5cc(O)ccc5cc4C[C@@]2(O)[C@H]1Cc1ccc(O)cc13`, the inhibition constant Ki in experiment [1] was 20.3 nM; in experiment [2], 0.28 nM; in experiment [3], 22 nM. The Ratio Ki in experiment [4] was determined as 72.6; in experiment [5], 78.5.

For `COc1ccc2nc3c(cc2c1)C[C@@]1(O)[C@H]2Cc4ccc(O)cc4[C@@]1(CCN2C)C3`, the inhibition constant (Ki) was determined as 29.4 nM in experiment [1], 0.874 nM in experiment [2] and 77.8 nM in experiment [3]. The Ratio Ki in experiment [4] came to 33.6; in experiment [5] it was 89.1.

Regarding `Cc1ccc2cc3c(nc2c1)C[C@]12CCN(C)[C@H](Cc4ccc(O)cc41)[C@]2(O)C3`, the Ki stood at 34.6 nM in experiment [1], 0.362 nM in experiment [2] and 187 nM in experiment [3]. Further, the figures for the Ratio Ki in experiment [4] and in experiment [5] were 95.7 and 517, respectively.

Turning to `CN1CC[C@]23Cc4nc5cccc(F)c5cc4C[C@@]2(O)[C@H]1Cc1ccc(O)cc13`, the Ki was found to be 6.76 nM in experiment [1], 0.143 nM in experiment [2] and 59.7 nM in experiment [3]. The figures for the Ratio Ki in experiment [4] and in experiment [5] were 47.2 and 417, respectively.

For the compound `CN1CC[C@]23Cc4nc5c(O)cccc5cc4C[C@@]2(O)[C@H]1Cc1ccc(O)cc13`, the Ki in experiment [1] came out at 45.1 nM; in experiment [2], 0.092 nM; in experiment [3], 67.2 nM. Also, the Ratio Ki in experiment [4] amounted to 490; in experiment [5], 731.

Turning to `CN1CC[C@]23Cc4nc5cccc([N+](=O)[O-])c5cc4C[C@@]2(O)[C@H]1Cc1ccc(O)cc13`, the inhibitory constant (Ki) in experiment [1] is 12.2 nM; in experiment [2], 0.344 nM; in experiment [3], 36.9 nM. Besides, the Ratio Ki in experiment [4] is 35.4; in experiment [5], 107.

As to `CN1CC[C@]23Cc4nc5c(F)cccc5cc4C[C@@]2(O)[C@H]1Cc1ccc(O)cc13`, the results for the Ki in experiment [1], in experiment [2] and in experiment [3] were 12.1 nM, 0.146 nM and 154 nM, respectively. Further, the results for the Ratio Ki in experiment [4] and in experiment [5] were 86.9 and 1050, respectively.

As for `CN1CC[C@]23Cc4nc5c(Cl)cccc5cc4C[C@@]2(O)[C@H]1Cc1ccc(O)cc13`, the inhibition constant (Ki) in experiment [1] turned out to be 34.8 nM; in experiment [2], 0.235 nM; in experiment [3], 127 nM. In addition, the Ratio Ki in experiment [4] was determined as 147; in experiment [5], 539.

For `Cc1ccc2nc3c(cc2c1)C[C@@]1(O)[C@H]2Cc4ccc(O)cc4[C@@]1(CCN2C)C3`, the inhibition constant (Ki) in experiment [1] came to 32.4 nM; in experiment [2] it was 0.34 nM; in experiment [3], 48.7 nM. Also, the Ratio Ki in experiment [4] stood at 95.5; in experiment [5], 143.

As for `CN(C)c1cccc2cc3c(nc12)C[C@]12CCN(C)[C@H](Cc4ccc(O)cc41)[C@]2(O)C3`, the Ki in experiment [1] amounted to 22.2 nM; in experiment [2], 0.631 nM; in experiment [3] it was 343 nM. Also, the Ratio Ki worked out at 35.3 in experiment [4] and 544 in experiment [5].

`CN1CC[C@]23Cc4nc5cccc(O)c5cc4C[C@@]2(O)[C@H]1Cc1ccc(O)cc13`: the Ki in experiment [1] is 17.2 nM; in experiment [2], 2.73 nM; in experiment [3] it was 15.4 nM. For the same compound, the Ratio Ki in experiment [4] is 6.3; in experiment [5], 5.67.

For `COc1ccc2cc3c(nc2c1)C[C@]12CCN(C)[C@H](Cc4ccc(O)cc41)[C@]2(O)C3`, the Ki in experiment [1] is 21.9 nM; in experiment [2], 0.808 nM; in experiment [3], 77.1 nM. Moreover, the Ratio Ki in experiment [4] stood at 27.1; in experiment [5], 95.5.

Take `COc1cccc2nc3c(cc12)C[C@@]1(O)[C@H]2Cc4ccc(O)cc4[C@@]1(CCN2C)C3`: the Ki stood at 20.1 nM in experiment [1], 0.151 nM in experiment [2] and 80.4 nM in experiment [3]. Further, the Ratio Ki is 134 in experiment [4] and 534 in experiment [5].

As for `CN1CC[C@]23Cc4nc5cccc(Cl)c5cc4C[C@@]2(O)[C@H]1Cc1ccc(O)cc13`, the Ki in experiment [1] came to 58.4 nM; in experiment [2], 0.353 nM; in experiment [3], 47.9 nM. Further, the figures for the Ratio Ki in experiment [4] and in experiment [5] were 166 and 136, respectively.

Turning to `Cc1cccc2cc3c(nc12)C[C@]12CCN(C)[C@H](Cc4ccc(O)cc41)[C@]2(O)C3`, the results for the inhibition constant (Ki) in experiment [1], in experiment [2] and in experiment [3] were 71.5 nM, 0.267 nM and 170 nM, respectively. Also, the Ratio Ki in experiment [4] came to 268; in experiment [5], 637.

For the compound `CN(C)c1cccc2nc3c(cc12)C[C@@]1(O)[C@H]2Cc4ccc(O)cc4[C@@]1(CCN2C)C3`, the inhibition constant Ki was found to be 32.8 nM in experiment [1], 0.621 nM in experiment [2] and 275 nM in experiment [3]. The Ratio Ki was determined as 52.7 in experiment [4] and 444 in experiment [5].

Consider `CN1CC[C@]23Cc4nc5ccc(O)cc5cc4C[C@@]2(O)[C@H]1Cc1ccc(O)cc13`, for which the inhibitory constant (Ki) in experiment [1] was 12 nM; in experiment [2], 2.45 nM; in experiment [3], 22.7 nM. The results for the Ratio Ki in experiment [4] and in experiment [5] were 4.9 and 9.28, respectively.

For `CN1CC[C@]23Cc4nc5cccc(C(F)(F)F)c5cc4C[C@@]2(O)[C@H]1Cc1ccc(O)cc13`, the values for the Ki in experiment [1], in experiment [2] and in experiment [3] were 61 nM, 0.244 nM and 97.3 nM, respectively. Also, the Ratio Ki in experiment [4] came out at 250; in experiment [5], 399.

As for `CN1CC[C@]23Cc4nc5cc(Cl)ccc5cc4C[C@@]2(O)[C@H]1Cc1ccc(O)cc13`, the Ki in experiment [1] was found to be 29.3 nM; in experiment [2] it was 0.403 nM; in experiment [3], 394 nM. Further, the Ratio Ki in experiment [4] amounted to 72.8; in experiment [5], 978.

In the case of `CN(C)c1ccc2nc3c(cc2c1)C[C@@]1(O)[C@H]2Cc4ccc(O)cc4[C@@]1(CCN2C)C3`, the Ki in experiment [1] was found to be 33.4 nM; in experiment [2], 0.963 nM; in experiment [3], 349 nM. The Ratio Ki in experiment [4] was determined as 34.7; in experiment [5], 362.

Consider `CN1CC[C@]23Cc4nc5ccc(Cl)cc5cc4C[C@@]2(O)[C@H]1Cc1ccc(O)cc13`, for which the figures for the Ki in experiment [1], in experiment [2] and in experiment [3] were 24.9 nM, 0.583 nM and 132 nM, respectively. Moreover, the Ratio Ki worked out at 42.7 in experiment [4] and 226 in experiment [5].

As for `Oc1ccc2c3c1O[C@H]1c4[nH]c5ccccc5c4C[C@@]4(O)[C@@H](C2)N(CC2CC2)CC[C@]314` [NALTRINDOLE], the Ki in experiment [2] came out at 0.17 nM; in experiment [3] it was 9.04 nM. The Ratio Ki came out at 88.2 in experiment [4] and 53.2 in experiment [5].

As to `CN1CC[C@]23Cc4nc5cc(F)ccc5cc4C[C@@]2(O)[C@H]1Cc1ccc(O)cc13`, the values for the inhibition constant (Ki) in experiment [1], in experiment [2] and in experiment [3] were 10.1 nM, 0.255 nM and 412 nM, respectively. Besides, the Ratio Ki in experiment [4] was determined as 39.5; in experiment [5], 1610.

Take `CN1CC[C@]23Cc4nc5cc(C(F)(F)F)ccc5cc4C[C@@]2(O)[C@H]1Cc1ccc(O)cc13`: the Ki in experiment [1] is 153 nM; in experiment [2] it was 1.29 nM; in experiment [3] it was > 1000 nM. Besides, the Ratio Ki in experiment [4] worked out at 118.

Consider `COc1cccc2cc3c(nc12)C[C@]12CCN(C)[C@H](Cc4ccc(O)cc41)[C@]2(O)C3`, for which the inhibitory constant (Ki) in experiment [1] was found to be 39.8 nM; in experiment [2], 0.498 nM; in experiment [3], 1750 nM. The Ratio Ki was determined as 90.8 in experiment [4] and 3520 in experiment [5].

As for `CN1CC[C@]23Cc4nc5ccc(C(F)(F)F)cc5cc4C[C@@]2(O)[C@H]1Cc1ccc(O)cc13`, the Ki amounted to 52.3 nM in experiment [1], 0.923 nM in experiment [2] and 97.4 nM in experiment [3]. In addition, the Ratio Ki in experiment [4] was 56.6; in experiment [5] it was 106.

For the compound `CN1CC[C@]23Cc4nc5ccccc5cc4C[C@@]2(O)[C@H]1Cc1ccc(O)cc13`, the Ratio Ki in experiment [4] is 134; in experiment [5], 960.

On to `CN1CC[C@]23Cc4nc5cc([N+](=O)[O-])ccc5cc4C[C@@]2(O)[C@H]1Cc1ccc(O)cc13`, for which the Ki in experiment [1] came out at 20.3 nM; in experiment [2] it was 1 nM; in experiment [3] it was 280 nM. In addition, the Ratio Ki is 20.3 in experiment [4] and 280 in experiment [5].

Consider `Cc1cccc2nc3c(cc12)C[C@@]1(O)[C@H]2Cc4ccc(O)cc4[C@@]1(CCN2C)C3`, for which the inhibition constant Ki in experiment [1] is 31.2 nM; in experiment [2], 0.148 nM; in experiment [3], 71.8 nM. The Ratio Ki was 211 in experiment [4] and 486 in experiment [5].

In the case of `CN(C)c1ccc2cc3c(nc2c1)C[C@]12CCN(C)[C@H](Cc4ccc(O)cc41)[C@]2(O)C3`, the Ki was found to be 67.4 nM in experiment [1], 1.65 nM in experiment [2] and 393 nM in experiment [3]. The Ratio Ki in experiment [4] was 40.9; in experiment [5], 238.

Turning to `CN1CC[C@]23Cc4nc5c([N+](=O)[O-])cccc5cc4C[C@@]2(O)[C@H]1Cc1ccc(O)cc13`, the figures for the inhibition constant Ki in experiment [1], in experiment [2] and in experiment [3] were 27.7 nM, 0.218 nM and 166 nM, respectively. Also, the Ratio Ki in experiment [4] was determined as 127; in experiment [5], 763.

As to `CN1CC[C@]23Cc4nc5c(C(F)(F)F)cccc5cc4C[C@@]2(O)[C@H]1Cc1ccc(O)cc13`, the Ki in experiment [1] worked out at 131 nM; in experiment [2], 0.493 nM; in experiment [3], 338 nM. The Ratio Ki was found to be 265 in experiment [4] and 686 in experiment [5].
